Test results as given in patent US20130096067A1, “DROSOPHILA TUMOR STEM CELL MODEL AND USES THEREOF” (priority 2011, published 2013).
Like-named read-outs stand apart in the source and are kept apart here.

Test system: Raf-1^gof intestinal tumors
Settings: for Log2 (fold) of luciferase activity relative to DMSO controls / Fold (luciferase activity relative to DMSO controls): ICCB compounds fed in vials to flies with one-day old Raf-1^gof tumors; for Fold: Table 3 summary of hits, Screen ICCB, luciferase relative to DMSO, fed three consecutive days in vials
[1] = assessed three days later, averaged from multiple wells
[2] = screen of 480 ICCB compounds in vials, compounds fed to flies with one-day old Raf-1^gof tumors, assessed three days later, esg-Gal4 luciferase
[3] = screen of 480 ICCB compounds in vials, compounds fed to flies with one-day old Raf-1^gof tumors, assessed three days later, esg-Gal4 luciferase, averaged from multiple wells
Throughout, for Fold (luciferase activity relative to DMSO controls): test concentration or dose not given here.
Throughout, for Fold (luciferase activity, fold difference relative to DMSO controls): test concentration or dose not given here.
Throughout, for Log2 (fold) (luciferase activity, log2 of the fold difference relative to DMSO controls): test concentration or dose not given here.
Throughout, for Log2 (fold) of luciferase activity relative to DMSO controls: test concentration or dose not given here.

CCCCCC(=O)/C=C/C=C\CCCCCCCC(=O)O [13-KETOOCTADECADIENOIC ACID]
Log2 (fold) of luciferase activity relative to DMSO controls (assessed three days later): 0.320
Fold (luciferase activity relative to DMSO controls) [1]: 1.248 fold

CCCCC/C=C\C/C=C\CCCCCCCC(=O)NCC(=O)O [N-LINOLEOYLGLYCINE]
Log2 (fold) (luciferase activity, log2 of the fold difference relative to DMSO controls) [2]: −0.285
Fold (luciferase activity, fold difference relative to DMSO controls) [3]: 0.821

CCCCC(C)(O)C/C=C/[C@H]1[C@H](O)CC(=O)[C@@H]1CCCCCCC(=O)O (mixture of isomers) [MISOPROSTOL, FREE ACID]
Log2 (fold) of luciferase activity relative to DMSO controls (assessed three days later): −0.137
Fold (luciferase activity relative to DMSO controls) [1]: 0.909 fold

HA14-1
Log2 (fold) (luciferase activity, log2 of the fold difference relative to DMSO controls) [2]: −0.590
Fold (luciferase activity, fold difference relative to DMSO controls) [3]: 0.664

CCCCC/C=C\C\C=C/C=C/C=C/[C@@H](SCC(NC(C)=O)C(=O)O)[C@@H](O)CCCC(=O)O (stereo partly shown) [N-ACETYL-LEUKOTRIENE E4]
Log2 (fold) (luciferase activity, log2 of the fold difference relative to DMSO controls) [2]: −0.318
Fold (luciferase activity, fold difference relative to DMSO controls) [3]: 0.802

C[C@H]1CCC/C=C/[C@@H]2C[C@H](O)C[C@H]2[C@H](O)/C=C/C(=O)O1 [brefeldin A]
Log2 (fold) (luciferase activity, log2 of the fold difference relative to DMSO controls) [2]: −0.422
Fold (luciferase activity, fold difference relative to DMSO controls) [3]: 0.746

O=C(NCCCCCCNC(=O)ON=C1CCCCC1)ON=C1CCCCC1 [RHC-80267]
Log2 (fold) (luciferase activity, log2 of the fold difference relative to DMSO controls) [2]: −0.279
Fold (luciferase activity, fold difference relative to DMSO controls) [3]: 0.824

CCCCC/C=C\C/C=C\C/C=C\C/C=C\CCCC(=O)OC(CO)CO [2-ARACHIDONOYLGLYCEROL]
Log2 (fold) of luciferase activity relative to DMSO controls (assessed three days later): 0.119
Fold (luciferase activity relative to DMSO controls) [1]: 1.086 fold

CCCCC[C@H](O)/C=C/[C@@H]1[C@@H](C/C=C\CCCC(=O)O)[C@H]2CO[C@@H]1C2 [U-46619]
Log2 (fold) of luciferase activity relative to DMSO controls (assessed three days later): −0.063
Fold (luciferase activity relative to DMSO controls) [1]: 0.957 fold

COC(=O)[C@@]1(O)C[C@H]2O[C@]1(C)n1c3ccccc3c3c4c(c5c6ccccc6n2c5c31)C(=O)NC4 [K252A]
Log2 (fold) of luciferase activity relative to DMSO controls (assessed three days later): 0.364
Fold (luciferase activity relative to DMSO controls) [1]: 1.287 fold

NC(=NCc1ccccc1)NC(=O)c1nc(Cl)c(N)nc1N [BENZAMIL]
Log2 (fold) of luciferase activity relative to DMSO controls (assessed three days later): 0.006
Fold (luciferase activity relative to DMSO controls) [1]: 1.004 fold

O=C([O-])CCC/C=C\CC1C(O)CC(O)C1/C=C/C(O)COc1cccc(Cl)c1.[Na+] (stereo not shown) [CLOPROSTENOL Na]
Log2 (fold) of luciferase activity relative to DMSO controls (assessed three days later): 0.101
Fold (luciferase activity relative to DMSO controls) [1]: 1.073 fold

CCOC(=O)CN1C(=O)CC(C[C@@H](O)[C@@H]2C[C@@H](C)C[C@H](C)C2=O)CC1=O [cycloheximide-N-ethylethanoate]
Log2 (fold) of luciferase activity relative to DMSO controls (assessed three days later): −0.014
Fold (luciferase activity relative to DMSO controls) [1]: 0.990 fold

CCCCC[C@H](O)/C=C/[C@H]1C=CC(=O)[C@@H]1C/C=C\CCCC(=O)O [PROSTAGLANDIN A2]
Log2 (fold) (luciferase activity, log2 of the fold difference relative to DMSO controls) [2]: −0.295
Fold (luciferase activity, fold difference relative to DMSO controls) [3]: 0.815

O=c1c(-c2ccc(O)cc2)coc2cc(O)cc(O)c12 [genistein]
Log2 (fold) (luciferase activity, log2 of the fold difference relative to DMSO controls) [2]: −0.275
Fold (luciferase activity, fold difference relative to DMSO controls) [3]: 0.826

CCCCCC=CCC=CCC=CCC1OC1CCCC(=O)O (stereo not shown) [5,6-EPOXYEICOSATRIENOIC ACID]
Log2 (fold) of luciferase activity relative to DMSO controls (assessed three days later): −0.164
Fold (luciferase activity relative to DMSO controls) [1]: 0.892 fold

O=C(O)CNC(=O)C(CS)Cc1ccccc1 (stereo not shown) [Thiorphan]
Log2 (fold) (luciferase activity, log2 of the fold difference relative to DMSO controls) [2]: −0.673
Fold (luciferase activity, fold difference relative to DMSO controls) [3]: 0.627

CCCCCCCCCCCCCCCCOCC(COP(=O)([O-])OCC[N+](C)(C)C)OC(C)=O (stereo not drawn) [ENANTIO-PAF C16]
Log2 (fold) of luciferase activity relative to DMSO controls (assessed three days later): −0.051
Fold (luciferase activity relative to DMSO controls) [1]: 0.965 fold

N#CC(C#N)=Cc1ccc([N+](=O)[O-])c(O)c1 [tyrphostin AG-126]
Log2 (fold) of luciferase activity relative to DMSO controls (assessed three days later): −0.085
Fold (luciferase activity relative to DMSO controls) [1]: 0.943 fold

Nc1ncnc2c1nc(Br)n2C1O[C@H]2COP(=O)(O)O[C@@H]2[C@@H]1O (stereo partly shown) [Bromo-cAMP [8-Bromo-cAMP]]
Log2 (fold) of luciferase activity relative to DMSO controls (assessed three days later): −0.045
Fold (luciferase activity relative to DMSO controls) [1]: 0.969 fold

CC(C)C[C@H](NC(=O)[C@@H](O)[C@H](N)Cc1ccccc1)C(=O)O [Bestatin]
Log2 (fold) (luciferase activity, log2 of the fold difference relative to DMSO controls) [2]: −0.688
Fold (luciferase activity, fold difference relative to DMSO controls) [3]: 0.621

O=C1C2CCN(CC2)C1(CO)CO [PRIMA-1]
Log2 (fold) of luciferase activity relative to DMSO controls (assessed three days later): −0.110
Fold (luciferase activity relative to DMSO controls) [1]: 0.926 fold

O=c1c(O)c(-c2ccc(O)c(O)c2)oc2cc(O)cc(O)c12 [quercetin]
Fold (luciferase activity, fold difference relative to DMSO controls) (in vivo): 0.737
Log2 (fold) (luciferase activity, log2 of the fold difference relative to DMSO controls) (in vivo): −0.440

Br.NC1CCc2cc(O)c(O)cc2C1 (stereo not shown) [6,7-ADTN HBr]
Log2 (fold) (luciferase activity, log2 of the fold difference relative to DMSO controls) [2]: −0.383
Fold (luciferase activity, fold difference relative to DMSO controls) [3]: 0.767

CCCCCCCCCCCCCCC[C@@H](O)[C@H](CO)NC(=O)CCCCCCC [C8 DIHYDROCERAMIDE]
Log2 (fold) (luciferase activity, log2 of the fold difference relative to DMSO controls) [2]: −0.423
Fold (luciferase activity, fold difference relative to DMSO controls) [3]: 0.746

CC[C@@]1(O)C(=O)OCc2c1cc1n(c2=O)Cc2cc3cc(O)ccc3nc2-1 [10-hydroxycamptothecin, reference compound]
Fold: 0.525 fold
Log2 (fold) (luciferase activity, log2 of the fold difference relative to DMSO controls) [2]: −0.930
Fold (luciferase activity, fold difference relative to DMSO controls) [3]: 0.525

CC/C=C\C/C=C\C/C=C\C/C=C\C/C=C\C/C=C\CCC(=O)O [DOCOSAHEXAENOIC ACID (22:6 n-3)]
Log2 (fold) (luciferase activity, log2 of the fold difference relative to DMSO controls) [2]: −0.248
Fold (luciferase activity, fold difference relative to DMSO controls) [3]: 0.842

CCCCC/C=C\C/C=C\C/C=C\C/C=C\CCCC(=O)O [ARACHIDONIC ACID (20:4, n-6)]
Log2 (fold) of luciferase activity relative to DMSO controls (assessed three days later): −0.045
Fold (luciferase activity relative to DMSO controls) [1]: 0.969 fold

COc1ccc2c(c1)CC[C@@H]1[C@@H]2CC[C@]2(C)[C@@H](NCCCCCCN3C(=O)C=CC3=O)CC[C@@H]12 [U73122]
Log2 (fold) (luciferase activity, log2 of the fold difference relative to DMSO controls) [2]: −0.865
Fold (luciferase activity, fold difference relative to DMSO controls) [3]: 0.549

O=C(Nc1ccccc1)c1cc([N+](=O)[O-])ccc1Cl [GW-9662]
Log2 (fold) (luciferase activity, log2 of the fold difference relative to DMSO controls) [2]: −0.581
Fold (luciferase activity, fold difference relative to DMSO controls) [3]: 0.669

CCCCC/C=C\C/C=C\C/C=C\C/C=C\CCCC(=O)OC(CO)COCCCCCCCCCCCCCCCC (stereo not shown) [1-HEXADECYL-2-ARACHIDONOYL-GLYCEROL]
Log2 (fold) (luciferase activity, log2 of the fold difference relative to DMSO controls) [2]: −0.379
Fold (luciferase activity, fold difference relative to DMSO controls) [3]: 0.769

COc1cccc2c1cc([N+](=O)[O-])c1c(C(=O)O)cc3c(c12)OCO3 [aristolochic acid, reference compound]
Fold: 0.422 fold
Log2 (fold) (luciferase activity, log2 of the fold difference relative to DMSO controls) [2]: −1.243
Fold (luciferase activity, fold difference relative to DMSO controls) [3]: 0.422

COc1ccc2c(c1)c(CC(=O)N1CCOCC1)c(C)n2C(=O)c1ccc(Cl)cc1 [BML-190]
Log2 (fold) of luciferase activity relative to DMSO controls (assessed three days later): −0.202
Fold (luciferase activity relative to DMSO controls) [1]: 0.869 fold

O=c1c2ccccc2[se]n1-c1ccccc1 [Ebselen]
Log2 (fold) of luciferase activity relative to DMSO controls (assessed three days later): −0.168
Fold (luciferase activity relative to DMSO controls) [1]: 0.890 fold

COCCOC(=O)C1=C(C)NC(C)=C(C(=O)OC(C)C)C1c1cccc([N+](=O)[O-])c1 (stereo not shown) [NIMODIPINE]
Log2 (fold) (luciferase activity, log2 of the fold difference relative to DMSO controls) [2]: −0.238
Fold (luciferase activity, fold difference relative to DMSO controls) [3]: 0.848

CS(=O)(=O)Nc1ccc([N+](=O)[O-])cc1OC1CCCCC1 [NS-398]
Log2 (fold) (luciferase activity, log2 of the fold difference relative to DMSO controls) [2]: −0.592
Fold (luciferase activity, fold difference relative to DMSO controls) [3]: 0.663

Nc1cc(N2CCCCC2)nc(N)[n+]1[O-] [MINOXIDIL]
Log2 (fold) (luciferase activity, log2 of the fold difference relative to DMSO controls) [2]: −0.292
Fold (luciferase activity, fold difference relative to DMSO controls) [3]: 0.817

Cc1ccc(NC(=O)c2cccc(N(C)C)c2)cc1NC(=O)c1ccc(O)cc1 [ZM336372]
Log2 (fold) (luciferase activity, log2 of the fold difference relative to DMSO controls) [2]: −0.338
Fold (luciferase activity, fold difference relative to DMSO controls) [3]: 0.791

CC(=O)[C@H]1[C@H](C#N)C[C@H]2[C@@H]3CC=C4C[C@@H](O)CC[C@]4(C)[C@H]3CC[C@@]21C [Pregnenolone 16alpha carbonitrile]
Log2 (fold) (luciferase activity, log2 of the fold difference relative to DMSO controls) [2]: −0.492
Fold (luciferase activity, fold difference relative to DMSO controls) [3]: 0.711

CC1(O)CC23CC(O)C4(O)C(CC(O)C4(C)C)C(C)(O)C2CCC1C3O (stereo not shown) [GR[…]]
Log2 (fold) (luciferase activity, log2 of the fold difference relative to DMSO controls) [2]: −0.553
Fold (luciferase activity, fold difference relative to DMSO controls) [3]: 0.682

CC(C)n1cnc2c(NCc3ccccc3)nc(NCCO)nc21 [N9-Isopropylolomoucine]
Log2 (fold) (luciferase activity, log2 of the fold difference relative to DMSO controls) [2]: −0.490
Fold (luciferase activity, fold difference relative to DMSO controls) [3]: 0.712

Oc1ccc(C=Cc2cc(O)cc(O)c2)cc1 [resveratrol]
Log2 (fold) (luciferase activity, log2 of the fold difference relative to DMSO controls) [2]: −0.551
Fold (luciferase activity, fold difference relative to DMSO controls) [3]: 0.682

CCCCCC(O)c1cccc(OCc2ccc3ccccc3n2)c1 (stereo not shown) [REV-5901]
Log2 (fold) (luciferase activity, log2 of the fold difference relative to DMSO controls) [2]: −0.282
Fold (luciferase activity, fold difference relative to DMSO controls) [3]: 0.822

O=C1CN(/N=C/c2ccc(-c3ccc([N+](=O)[O-])cc3)o2)C(O)=N1 [DANTROLENE]
Log2 (fold) of luciferase activity relative to DMSO controls (assessed three days later): −0.098
Fold (luciferase activity relative to DMSO controls) [1]: 0.934 fold

CC(C)=CCC/C(C)=C/CC/C(C)=C/CSCC(=O)O [FARNESYLTHIOACETIC ACID]
Log2 (fold) (luciferase activity, log2 of the fold difference relative to DMSO controls) [2]: −0.295
Fold (luciferase activity, fold difference relative to DMSO controls) [3]: 0.815

CC(C)(C)c1cc(O)c(C(C)(C)C)cc1O [2,5-ditertbutylhydroquinone]
Log2 (fold) (luciferase activity, log2 of the fold difference relative to DMSO controls) [2]: −0.293
Fold (luciferase activity, fold difference relative to DMSO controls) [3]: 0.816
